How the values were obtained:
[1] = In Vivo Pharmacokinetics Assay in mouse; conditions: male, Balb/c, plasma; for clearance at 24 h: IV 2 mg/kg
Experimental: (§1) Full pharmacokinetics study: Male Balb/c mice (n=3, body weights 22-25 g) or male Wistar rats (n=3, body weights 250-300 g) were administered the test compound intravenously via the lateral tail vein or orally via gavage. The formulation was typically a 2.5 mg/mL solution of the compound in 75% PEG300 and 25% D5W. Six blood samples of 50 μL each were collected serially for 24 h after dosing. The blood samples were centrifuged to separate the plasma. Plasma samples were analyzed and quantified by LC-MS/MS.
as §1, with “Rapid” for “Full”, “intravenously (IV)” for “intravenously”, “orally (PO)” for “orally”, “Blood” for “The blood”, “and plasma separated and pooled across” for “to separate”, “three animals at each time point per dose route.” for “plasma.”
For both full and rapid pharmacokinetics studies, the following parameters were calculated by non-compartmental regression analysis using Winnonlin 5.0 software (Pharsight, Mountain View, Calif., USA): plasma clearance (Cl), plasma maximum concentration (Cmax), plasma area-under-the-concentration-time-curve (AUC0-inf), and percent oral bioavailability (F %).

[2] = Liver Microsomal Clearance Assay, mouse; assay type: in vitro ADME; conditions: extraction ratio, mouse liver microsomes
Experimental: (§2) Liver Microsomal Clearance Assay
(§3) The in vitro microsomal clearance assay is designed to assess potential risks associated with hepatic metabolic stability of compounds. The test compound (1 μM) was incubated with liver microsomes (0.5 mg/mL) from different species (mouse, rat, monkey, dog and human) and NADPH (1 mM) in 100 mM potassium phosphate buffer at 37° C. At specific reaction time points (0, 5, 10 and 30 minutes), reaction aliquots were removed and reactions were terminated by addition of ice cold acetonitrile containing mass spectrometry internal standard. The samples were centrifuged and the supernatants were analyzed by LC-MS/MS. In vitro metabolic half-life (t1/2, min) and intrinsic clearance (CLint, μL/min/mg) are based on the rate and extent of metabolism of the test compound as determined by the disappearance of the parent compound from the reaction mixture. These values may be scaled to predict hepatic metabolic clearance rate (CLh, mL/min/kg) and extraction ratio (ER, expressed as a ratio of the predicted hepatic metabolic clearance to hepatic blood flow in that species). In general, compounds with high predicted CLint or ER in vitro are considered to be at high risk for exposure-limiting metabolism in vivo.

[3] = Liver Microsomal Clearance Assay, human; assay type: in vitro ADME; conditions: extraction ratio, human liver microsomes
Experimental: as §2, §3

B-Raf V600E = B-Raf V600E (Homo sapiens (Human), UniProt P15056, V600E); experiment: B-Raf V600E/Mek Amplified Luminescence Proximity Homogeneous Assay (B-Raf V600E biochemical); conditions: read-out: BRAF V600E biochemical IC50
Chain of B-Raf V600E (P15056 whole entry V600E): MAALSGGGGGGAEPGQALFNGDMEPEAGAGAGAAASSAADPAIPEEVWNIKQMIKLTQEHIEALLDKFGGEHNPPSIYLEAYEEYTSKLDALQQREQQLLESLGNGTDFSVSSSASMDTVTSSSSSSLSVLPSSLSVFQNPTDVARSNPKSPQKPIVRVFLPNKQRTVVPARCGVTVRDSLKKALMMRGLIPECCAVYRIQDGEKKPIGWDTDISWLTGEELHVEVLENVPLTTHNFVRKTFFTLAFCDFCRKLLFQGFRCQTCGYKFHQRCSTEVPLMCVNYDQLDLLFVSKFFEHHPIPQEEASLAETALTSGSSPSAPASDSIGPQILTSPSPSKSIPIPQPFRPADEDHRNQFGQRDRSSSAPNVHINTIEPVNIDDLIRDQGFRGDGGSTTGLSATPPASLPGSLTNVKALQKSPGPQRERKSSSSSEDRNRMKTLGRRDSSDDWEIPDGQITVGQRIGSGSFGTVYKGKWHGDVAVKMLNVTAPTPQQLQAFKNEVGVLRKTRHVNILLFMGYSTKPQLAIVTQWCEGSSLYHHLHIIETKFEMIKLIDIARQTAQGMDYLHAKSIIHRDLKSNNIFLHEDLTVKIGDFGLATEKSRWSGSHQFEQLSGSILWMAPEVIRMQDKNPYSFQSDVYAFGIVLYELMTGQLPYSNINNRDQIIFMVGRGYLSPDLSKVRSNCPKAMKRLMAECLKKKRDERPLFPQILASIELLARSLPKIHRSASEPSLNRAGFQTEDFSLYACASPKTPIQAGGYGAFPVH
Experimental: The plate was incubated for 60 minutes at room temperature.
The B-Raf kinase activity reaction was started by the addition of 10 μl per well of 2×ATP (10 μM) diluted in assay buffer. After 3 hours, the reactions were stopped with the addition of 10 μl of stop reagent (60 mM EDTA, 0.01% Tween20). Phosphorylated product was measured using a rabbit anti-p-MEK (Cell Signaling, #9121) antibody and the Alpha Screen IgG (ProteinA) detection Kit (PerkinElmer #6760617R), by the addition of 30 μl to the well of a mixture of the antibody (1:2000 dilution) and detection beads (1:1000 dilution of both beads) in bead buffer (50 mM Tris, pH 7.5, 0.01% Tween20). The additions were carried out under dark conditions to protect the detection beads from light. A lid was placed on top of the plate and the plate was incubated for 1 hour at room temperature. The luminescence was read on a PerkinElmer Envision instrument. The concentration of each compound for 50% inhibition (IC50) was calculated by non-linear regression using XL Fit data analysis software.

[4] = 5 mg/kg, PO/IV 5/2 mg/kg, n = 1

CCCS(=O)(=O)Nc1cc(Cl)cc(-c2nn(C(C)C)cc2-c2ccnc(NC[C@H](C)NC(=O)OC)n2)c1F [Compound 1, Methyl N-[(2S)-1-[(4-{3-[5-chloro-2-fluoro-3-(propane-1-sulfonamido)phenyl]-1-(propan-2-yl)-1H-pyrazol-4-yl}pyrimidin-2-yl)amino]propan-2-yl]carbamate]
bioavailability at 24 h [1, 4]: 46% | clearance at 24 h [1]: 7 mL/min/kg | AUC at 24 h ([1]; PO 5 mg/kg, n = 1): 9.7 µM·h | Cmax at 24 h ([1]; PO 5 mg/kg, n = 1): 7400 nM | ER Mouse [2]: 0.79 | ER Human [3]: 0.66

COC(=O)N[C@@H](C)CNc1nccc(-c2cn(C(C)C)nc2-c2cc(Cl)cc(NS(C)(=O)=O)c2)n1 [Compound 2, methyl N-[(2S)-1-({4-[3-(3-chloro-5-methanesulfonamidophenyl)-1-(propan-2-yl)-1H-pyrazol-4-yl]pyrimidin-2-yl}amino)propan-2-yl]carbamate]
IC50 (B-Raf V600E): 0.8 nM

CCCS(=O)(=O)Nc1cccc(-c2nn(C(C)C)cc2-c2ccnc(NC[C@H](C)NC(=O)OC)n2)c1F [Compound 3, methyl N-[(2S)-1-[(4-{3-[2-fluoro-3-(propane-1-sulfonamido)phenyl]-1-(propan-2-yl)-1H-pyrazol-4-yl}pyrimidin-2-yl)amino]propan-2-yl]carbamate]
bioavailability at 24 h [1, 4]: 6% | clearance at 24 h [1]: 51 mL/min/kg | AUC at 24 h ([1]; PO 5 mg/kg, n = 1): 0.2 µM·h | Cmax at 24 h ([1]; PO 5 mg/kg, n = 1): 70 nM | ER Mouse [2]: 0.85 | ER Human [3]: 0.69

COC(=O)N[C@@H](C)CNc1nccc(-c2cn(C(C)C)nc2-c2cccc(NS(C)(=O)=O)c2F)n1 [Compound 4, methyl N-[(2S)-1-({4-[3-(2-fluoro-3-methanesulfonamidophenyl)-1-(propan-2-yl)-1H-pyrazol-4-yl]pyrimidin-2-yl}amino)propan-2-yl]carbamate]
bioavailability at 24 h ([1]; 10 mg/kg, PO/IV 10/2 mg/kg): 36 ± 6% | clearance at 24 h [1]: 41 ± 9 mL/min/kg | AUC at 24 h ([1]; PO 10 mg/kg): 3 ± 0.5 µM·h | Cmax at 24 h ([1]; PO 10 mg/kg): 2000 ± 500 nM | IC50 (B-Raf V600E): 2.3 nM | ER Mouse [2]: 0.40 | ER Human [3]: <0.31

CCCS(=O)(=O)Nc1cc(Cl)cc(-c2nn(C(C)C)cc2-c2ccnc(NC[C@H](C)NC(=O)OC)n2)c1 [Compound 5, methyl N-[(2S)-1-[(4-{3-[3-chloro-5-(propane-1-sulfonamido)phenyl]-1-(propan-2-yl)-1H-pyrazol-4-yl}pyrimidin-2-yl)amino]propan-2-yl]carbamate]
IC50 (B-Raf V600E): 0.2 nM

COC(=O)N[C@@H](C)CNc1nccc(-c2cn(C(C)C)nc2-c2c(F)ccc(NS(C)(=O)=O)c2F)n1 [Compound 6, methyl N-[(2S)-1-({4-[3-(2,6-difluoro-3-methanesulfonamidophenyl)-1-(propan-2-yl)-1H-pyrazol-4-yl]pyrimidin-2-yl}amino)propan-2-yl]carbamate]
bioavailability at 24 h ([1]; 10 mg/kg, PO/IV 10/2 mg/kg): 15 ± 3% | clearance at 24 h [1]: 61 ± 6 mL/min/kg | AUC at 24 h ([1]; PO 10 mg/kg): 1.1 ± 0.2 µM·h | Cmax at 24 h ([1]; PO 10 mg/kg): 600 ± 20 nM | IC50 (B-Raf V600E): 3.9 nM | ER Human [3]: 0.69

COC(=O)N[C@@H](C)CNc1nccc(-c2cn(C(C)C)nc2-c2cc(F)cc(NS(C)(=O)=O)c2F)n1 [Compound 10, methyl N-[(2S)-1-({4-[3-(2,5-difluoro-3-methanesulfonamidophenyl)-1-(propan-2-yl)-1H-pyrazol-4-yl]pyrimidin-2-yl}amino)propan-2-yl]carbamate]
IC50 (B-Raf V600E): 0.6 nM

CCn1cc(-c2ccnc(NC[C@H](C)NC(=O)OC)n2)c(-c2cc(Cl)cc(NS(C)(=O)=O)c2F)n1 [Compound 11, methyl N-[(2S)-1-({4-[3-(5-chloro-2-fluoro-3-methanesulfonamidophenyl)-1-ethyl-1H-pyrazol-4-yl]pyrimidin-2-yl}amino)propan-2-yl]carbamate]
IC50 (B-Raf V600E): 0.5 nM

COC(=O)N[C@@H](C)CNc1nccc(-c2cn(C(C)C)nc2-c2cc(F)cc(NS(C)(=O)=O)c2Cl)n1 [Compound 15, Methyl N-[(2S)-1-({4-[3-(2-chloro-5-fluoro-3-methanesulfonamidophenyl)-1-(propan-2-yl)-1H-pyrazol-4-yl]pyrimidin-2-yl}amino)propan-2-yl]carbamate]
IC50 (B-Raf V600E): 1.1 nM

COC(=O)N[C@@H](C)CNc1nccc(-c2cn(C(C)C)nc2-c2ccnc(NS(C)(=O)=O)c2F)n1 [Compound 16, methyl N-[(2S)-1-({4-[3-(3-fluoro-2-methanesulfonamidopyridin-4-yl)-1-(propan-2-yl)-1H-pyrazol-4-yl]pyrimidin-2-yl}amino)propan-2-yl]carbamate]
IC50 (B-Raf V600E): 24 nM

COC(=O)N[C@@H](C)CNc1nccc(-c2cn(C(C)C)nc2-c2ccc(F)c(NS(C)(=O)=O)c2F)n1 [Compound 19, methyl N-[(2S)-1-({4-[3-(2,4-difluoro-3-methanesulfonamidophenyl)-1-(propan-2-yl)-1H-pyrazol-4-yl]pyrimidin-2-yl}amino)propan-2-yl]carbamate]
IC50 (B-Raf V600E): 6.1 nM

CCS(=O)(=O)Nc1c(F)ccc(-c2nn(C(C)C)cc2-c2ccnc(NC[C@H](C)NC(=O)OC)n2)c1F [Compound 26, methyl N-[(2S)-1-({4-[3-(3-ethanesulfonamido-2,4-difluorophenyl)-1-(propan-2-yl)-1H-pyrazol-4-yl]pyrimidin-2-yl}amino)propan-2-yl]carbamate]
IC50 (B-Raf V600E): 1.7 nM

COC(=O)N[C@@H](C)CNc1nccc(-c2cn(C(C)C)nc2-c2cc(NS(C)(=O)=O)c(C)c(OC)c2)n1 [Compound 27]
IC50 (B-Raf V600E): 390 nM

CC(C)n1cc(-c2ccnc(NCCN(C)C)n2)c(-c2cc(Cl)cc(NS(C)(=O)=O)c2F)n1 [Compound 28, N-{5-chloro-3-[4-(2-{[2-(dimethylamino)ethyl]amino}pyrimidin-4-yl)-1-(propan-2-yl)-1H-pyrazol-3-yl]-2-fluorophenyl}methanesulfonamide]
IC50 (B-Raf V600E): 90 nM

CNc1nccc(-c2cn(C(C)C)nc2-c2cc(Cl)cc(NS(C)(=O)=O)c2F)n1 [Compound 29, N-(5-chloro-2-fluoro-3-{4-[2-(methylamino)pyrimidin-4-yl]-1-(propan-2-yl)-1H-pyrazol-3-yl}phenyl)methanesulfonamide]
IC50 (B-Raf V600E): 8 nM

CC(C)n1cc(-c2ccnc(N)n2)c(-c2cc(Cl)cc(NS(C)(=O)=O)c2F)n1 [Compound 30, N-{3-[4-(2-aminopyrimidin-4-yl)-1-(propan-2-yl)-1H-pyrazol-3-yl]-5-chloro-2-fluorophenyl}methanesulfonamide]
IC50 (B-Raf V600E): 4.3 nM

COC(=O)N[C@@H](C)CNc1nccc(-c2c[nH]nc2-c2cc(Cl)cc(NS(C)(=O)=O)c2F)n1 [Compound 31, Methyl N-[(2S)-1-({4-[3-(5-chloro-2-fluoro-3-methanesulfonamidophenyl)-1H-pyrazol-4-yl]pyrimidin-2-yl}amino)propan-2-yl]carbamate]
IC50 (B-Raf V600E): 0.8 nM

COC(=O)NC[C@H](C)Nc1nccc(-c2cn(C(C)C)nc2-c2cc(Cl)cc(NS(C)(=O)=O)c2F)n1 [Compound 32, Methyl N-[(2S)-2-({4-[3-(5-chloro-2-fluoro-3-methanesulfonamidophenyl)-1-(propan-2-yl)-1H-pyrazol-4-yl]pyrimidin-2-yl}amino)propyl]carbamate]
IC50 (B-Raf V600E): 2.9 nM

CCCS(=O)(=O)Nc1c(F)ccc(-c2nn(C(C)C)cc2-c2ccnc(NC[C@H](C)NC(=O)OC)n2)c1F [Compound 34, methyl N-[(2S)-1-[(4-{3-[2,4-difluoro-3-(propane-1-sulfonamido)phenyl]-1-(propan-2-yl)-1H-pyrazol-4-yl}pyrimidin-2-yl)amino]propan-2-yl]carbamate]
IC50 (B-Raf V600E): 2.7 nM

Source: patent US9314464B2, “Compounds and compositions as protein kinase inhibitors” (Novartis AG, priority 2009, dated 2016)
